From paper PMC6104039 (Nature Communications, 2018)
Values joined by “and” are separate entries in the source; they are usually repeats but may differ in a detail not shown here. Equal values may be shown once.

Tested on: HEK293 cells
Assay: Endogenous ceramide, HexCer and SM levels in cells treated 24 h, targeted LC-MS/MS
Assay type: cell-based
Parameters: Cer 18:1/24:0 content in HEK293 cells / Cer 18:1/24:1 content in HEK293 cells / HexCer 18:1/16:0 content in HEK293 cells / HexCer 18:1/18:0 content in HEK293 cells / HexCer 18:1/20:0 content in HEK293 cells / HexCer 18:1/22:0 content in HEK293 cells / Cer 18:1/16:0 content in HEK293 cells / Cer 18:1/18:0 content in HEK293 cells / Cer 18:1/20:0 content in HEK293 cells / Cer 18:1/22:0 content in HEK293 cells: unit not given here
Conditions: replicates, raw data Suppl Fig 1
Procedure: Lipids were then extracted using MTBE/methanol/water as described above.
HEK293 cell culture experiment: Levels of each lipid in P053-treated HEK293 cells were normalised to the mean of the vehicle control group, and each concentration was compared to the control using ANOVA with Dunnett’s post-test. P values were adjusted for multiple comparisons in GraphPad PRISM.
Supplementary Figure 1. Ceramide, SM, and HexCer levels in HEK293 cells treated with
P053. Absolute lipid levels were determined by targeted LC-MS/MS, relative to external
standard curves. Results are mean ± SEM (n = 4) from one of two identical experiments.
Statistically significant results, based on two independent experiments, are as indicated in
Figure 2b-d. Raw data for these figures is provided in Supplementary Data File 1.

C[C@@](N)(CO)CCc1ccc(OCc2ccc(Cl)c(Cl)c2)cc1 [P053, (S)-2-amino-4-(4-(3,4-dichlorobenzyloxy)phenyl)-2-methylbutan-1-ol]
Cer 18:1/24:0 content in HEK293 cells (P053 10 nM): 78.2507 and 97.4893 and 100.975 and 120.086
Cer 18:1/24:1 content in HEK293 cells (P053 10 nM): 41.2869 and 36.9476 and 41.283 and 38.2211
HexCer 18:1/16:0 content in HEK293 cells (P053 10 nM): 30.7043 and 33.6425 and 33.4465 and 30.9255
HexCer 18:1/18:0 content in HEK293 cells (P053 10 nM): 4.5494 and 4.09 and 4.473 and 4.32
HexCer 18:1/20:0 content in HEK293 cells (P053 10 nM): 0.3088 and 0.3692 and 0.4154 and 0.4356
HexCer 18:1/22:0 content in HEK293 cells (P053 10 nM): 36.8189 and 34.9551 and 38.6561 and 38.9837
HexCer 18:1/24:0 content in HEK293 cells (P053 10 nM): 199.303 and 216.657 and 249.013 and 199.834
HexCer 18:1/24:1 content in HEK293 cells (P053 10 nM): 70.2405 and 72.3688 and 73.5755 and 68.734
SM 32:1 content in HEK293 cells (P053 10 nM): 35.2485 and 30.6751 and 30.1932 and 30.0675
SM 34:1 content in HEK293 cells (P053 10 nM): 296.401 and 243.663 and 224.502 and 225.737
SM 34:2 content in HEK293 cells (P053 10 nM): 47.2234 and 40.324 and 36.1571 and 38.6716
SM 36:1 content in HEK293 cells (P053 10 nM): 29.6301 and 20.7933 and 22.4748 and 21.0053
SM 36:2 content in HEK293 cells (P053 10 nM): 11.2341 and 9.942 and 8.241 and 8.207
SM 38:1 content in HEK293 cells (P053 10 nM): 6.182 and 8.401 and 6.6333 and 8.787
SM 40:1 content in HEK293 cells (P053 10 nM): 40.0944 and 41.0366 and 34.4775 and 35.2843
SM 40:2 content in HEK293 cells (P053 10 nM): 10.3276 and 10.9643 and 10.3385 and 8.643
SM 42:1 content in HEK293 cells (P053 10 nM): 68.7535 and 68.4711 and 69.6713 and 77.5442
SM 42:2 content in HEK293 cells (P053 10 nM): 119.092 and 115.121 and 104.672 and 105.467
Cer 18:1/16:0 content in HEK293 cells (P053 30 nM): 19.0547 and 20.8444 and 18.7423 and 20.5749
Cer 18:1/18:0 content in HEK293 cells (P053 30 nM): 5.081 and 5.075 and 4.316 and 4.99
Cer 18:1/20:0 content in HEK293 cells (P053 30 nM): 0.7183 and 0.7479 and 0.6521 and 0.6855
Cer 18:1/22:0 content in HEK293 cells (P053 30 nM): 57.3121 and 66.2959 and 65.6669 and 64.5364
Cer 18:1/24:0 content in HEK293 cells (P053 30 nM): 85.8777 and 134.225 and 118.415 and 97.9167
Cer 18:1/24:1 content in HEK293 cells (P053 30 nM): 37.3744 and 44.4522 and 42.1609 and 41.0899
HexCer 18:1/16:0 content in HEK293 cells (P053 30 nM): 29.7152 and 31.7982 and 33.8438 and 30.9723
HexCer 18:1/18:0 content in HEK293 cells (P053 30 nM): 3.0394 and 3.951 and 4.099 and 3.127
HexCer 18:1/20:0 content in HEK293 cells (P053 30 nM): 0.3329 and 0.4128 and 0.4628 and 0.5232
HexCer 18:1/22:0 content in HEK293 cells (P053 30 nM): 32.4873 and 39.9972 and 37.7095 and 34.9843
HexCer 18:1/24:0 content in HEK293 cells (P053 30 nM): 190.472 and 249.822 and 223.238 and 200.878
HexCer 18:1/24:1 content in HEK293 cells (P053 30 nM): 66.6616 and 76.2502 and 69.0398 and 65.5993
SM 32:1 content in HEK293 cells (P053 30 nM): 30.2036 and 32.0092 and 28.7617 and 34.5111
SM 34:1 content in HEK293 cells (P053 30 nM): 248.003 and 262.537 and 249.572 and 281.872
SM 34:2 content in HEK293 cells (P053 30 nM): 41.231 and 41.1196 and 40.1333 and 43.2759
SM 36:1 content in HEK293 cells (P053 30 nM): 22.0304 and 22.5253 and 18.9401 and 24.6728
SM 36:2 content in HEK293 cells (P053 30 nM): 9.089 and 8.502 and 8.127 and 10.0466
SM 38:1 content in HEK293 cells (P053 30 nM): 14.9847 and 8.56 and 5.18 and 11.7454
SM 40:1 content in HEK293 cells (P053 30 nM): 39.8982 and 44.3327 and 34.2754 and 42.2123
SM 40:2 content in HEK293 cells (P053 30 nM): 9.856 and 9.764 and 9.362 and 10.5652
SM 42:1 content in HEK293 cells (P053 30 nM): 69.7563 and 80.9547 and 78.46 and 71.8434
SM 42:2 content in HEK293 cells (P053 30 nM): 104.731 and 121.981 and 114.303 and 118.688
Cer 18:1/16:0 content in HEK293 cells (P053 100 nM): 22.9494 and 19.2357 and 22.5073 and 19.0496
Cer 18:1/18:0 content in HEK293 cells (P053 100 nM): 2.972 and 3.68 and 3.21 and 2.092
Cer 18:1/20:0 content in HEK293 cells (P053 100 nM): 0.613 and 0.738 and 0.687 and 0.5601
Cer 18:1/22:0 content in HEK293 cells (P053 100 nM): 66.0373 and 65.445 and 75.6523 and 61.1907
Cer 18:1/24:0 content in HEK293 cells (P053 100 nM): 95.8984 and 114.847 and 144.796 and 106.353
Cer 18:1/24:1 content in HEK293 cells (P053 100 nM): 43.7952 and 41.4019 and 48.5214 and 41.0347
HexCer 18:1/16:0 content in HEK293 cells (P053 100 nM): 28.7244 and 29.2314 and 27.3495 and 32.1782
HexCer 18:1/18:0 content in HEK293 cells (P053 100 nM): 1.552 and 2.033 and 2.382 and 2.572
HexCer 18:1/20:0 content in HEK293 cells (P053 100 nM): 0.3018 and 0.2953 and 0.2763 and 0.1537
HexCer 18:1/22:0 content in HEK293 cells (P053 100 nM): 35.0199 and 40.376 and 33.9893 and 41.9484
HexCer 18:1/24:0 content in HEK293 cells (P053 100 nM): 193.278 and 206.781 and 205.001 and 225.138
HexCer 18:1/24:1 content in HEK293 cells (P053 100 nM): 66.6213 and 67.2246 and 64.4273 and 72.2662
SM 32:1 content in HEK293 cells (P053 100 nM): 33.5311 and 33.1495 and 31.0137 and 33.9978
SM 34:1 content in HEK293 cells (P053 100 nM): 239.205 and 244.554 and 241.828 and 261.421
SM 34:2 content in HEK293 cells (P053 100 nM): 40.9604 and 43.1506 and 39.5005 and 44.6858
SM 36:1 content in HEK293 cells (P053 100 nM): 15.6181 and 17.1499 and 17.2078 and 18.9256
SM 36:2 content in HEK293 cells (P053 100 nM): 6.971 and 7.206 and 7.1332 and 7.405
SM 38:1 content in HEK293 cells (P053 100 nM): 4.352 and 7.605 and 11.0645 and 10.3031
SM 40:1 content in HEK293 cells (P053 100 nM): 39.6185 and 38.4983 and 41.6326 and 45.0957
SM 40:2 content in HEK293 cells (P053 100 nM): 10.6428 and 11.1113 and 10.5382 and 10.6417
SM 42:1 content in HEK293 cells (P053 100 nM): 70.6629 and 69.6062 and 82.0245 and 85.9318
SM 42:2 content in HEK293 cells (P053 100 nM): 112.606 and 107.685 and 114.026 and 114.211
Cer 18:1/16:0 content in HEK293 cells (P053 300 nM): 17.822 and 19.0766 and 17.3933
Cer 18:1/18:0 content in HEK293 cells (P053 300 nM): 1.8912 and 1.699 and 1.376
Cer 18:1/20:0 content in HEK293 cells (P053 300 nM): 0.7162 and 0.4601 and 0.6576
Cer 18:1/22:0 content in HEK293 cells (P053 300 nM): 64.624 and 69.7847 and 70.6121
Cer 18:1/24:0 content in HEK293 cells (P053 300 nM): 94.7176 and 106.124 and 124.497
Cer 18:1/24:1 content in HEK293 cells (P053 300 nM): 42.6517 and 39.4375 and 41.6471
HexCer 18:1/16:0 content in HEK293 cells (P053 300 nM): 26.9367 and 27.3197 and 28.9409
HexCer 18:1/18:0 content in HEK293 cells (P053 300 nM): 1.661 and 1.355 and 1.491
HexCer 18:1/20:0 content in HEK293 cells (P053 300 nM): 0.2792 and 0.518 and 0.2446
HexCer 18:1/22:0 content in HEK293 cells (P053 300 nM): 43.5691 and 40.2015 and 45.0568
HexCer 18:1/24:0 content in HEK293 cells (P053 300 nM): 220.79 and 197.985 and 254.871
HexCer 18:1/24:1 content in HEK293 cells (P053 300 nM): 63.1626 and 68.7371 and 74.9033
SM 32:1 content in HEK293 cells (P053 300 nM): 31.4532 and 33.3582 and 37.098
SM 34:1 content in HEK293 cells (P053 300 nM): 241.436 and 241.197 and 248.392
SM 34:2 content in HEK293 cells (P053 300 nM): 42.0268 and 43.5268 and 45.2968
SM 36:1 content in HEK293 cells (P053 300 nM): 14.7086 and 14.6722 and 17.3205
SM 36:2 content in HEK293 cells (P053 300 nM): 6.184 and 6.8179 and 6.541
SM 38:1 content in HEK293 cells (P053 300 nM): 9.78 and 11.6533 and 8.0822
SM 40:1 content in HEK293 cells (P053 300 nM): 43.4372 and 43.0067 and 50.439
SM 40:2 content in HEK293 cells (P053 300 nM): 12.0217 and 11.0813 and 11.4772
SM 42:1 content in HEK293 cells (P053 300 nM): 70.0557 and 70.3641 and 94.669
SM 42:2 content in HEK293 cells (P053 300 nM): 117.582 and 110.303 and 130.267
